Source: the NIST ThermoML archive (doi:10.1016/j.jct.2019.03.023)

Conditions: isochoric method

CC(C)O [propan-2-ol]
mass density [kg/m3]
Conditions | Gas | Liquid
380.35 K | – | 697.69
451.83 K | – | 581.06
507.95 K | – | 343.1
508.16 K | – | 329.2
508.28 K | – | 324.5
508.51 K | 234.3 | –
508.68 K | – | 293.3
508.69 K | – | 288.99
508.7 K | 255.8 | –
508.71 K | – | 281.9
508.72 K | 266.3 | 274
